# pIC50: −log10 of the molar value.
# Experiments:
# [1] = target: HPK1 kinase (aal-346. Life Technologies) (Homo sapiens (Human), UniProt Q92918); assay: HPK Kinase Activity Assay at 1 mM ATP (TR-FRET); format: biochemical; conditions: HPK1 kinase 40 nM, 0.5 μM STK1 substrate, read-out: Enzymatic activity IC50
# [2] = system: pSLP76(S376) level in Jurkat cell line; assay: Cellular pSLP76(S376) HTRF Assay; format: cell-based; conditions: Homo sapiens, Jurkat, Jurkat cells, 2 h compound treatment, stimulated with 0.05 μg/mL anti-human CD3 (OKT3) for 30 min
# Chain of HPK1 kinase (aal-346. Life Technologies) (Q92918 1-346): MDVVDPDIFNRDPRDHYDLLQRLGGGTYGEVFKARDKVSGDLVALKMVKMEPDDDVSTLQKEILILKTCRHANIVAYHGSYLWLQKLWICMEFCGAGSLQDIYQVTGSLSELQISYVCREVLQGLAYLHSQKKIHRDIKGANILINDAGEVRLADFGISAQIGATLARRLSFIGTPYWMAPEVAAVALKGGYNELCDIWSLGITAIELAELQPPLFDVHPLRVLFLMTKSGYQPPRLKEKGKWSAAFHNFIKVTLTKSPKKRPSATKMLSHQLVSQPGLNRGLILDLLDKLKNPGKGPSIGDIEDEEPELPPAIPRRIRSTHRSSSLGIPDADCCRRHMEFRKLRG
SMILES,pIC50 [1],pIC50 [2]
"CNS(=O)(=O)c1cc(-c2cnc(N)c(Oc3cnn(C4CCN(C)CC4)c3)n2)cc(N2CCC[C@H]2C)c1 [Example A43, (R)-3-(5-amino-6-((1-(1-methylpiperidin-4-yl)-1H-pyrazol-4-yl)oxy)pyrazin-2-yl)-N-methyl-5-(2-methylpyrrolidin-1-yl)benzenesulfonamide]",8.22,7.59
"Cc1cc(-c2cnc(N)c(Oc3cnn(C4CCN(C)CC4)c3)n2)cc(C2(O)COC2)c1 [Example A54, 3-(3-(5-amino-6-((1-(1-methylpiperidin-4-yl)-1H-pyrazol-4-yl)oxy)pyrazin-2-yl)-5-methylphenyl)oxetan-3-ol]",8.00,7.48
"Cc1cc(-c2cnc(N)c(Oc3cnn(C4CCN(C)CC4)c3)n2)cc(C(F)F)c1C(=O)NCCN(C)C [Example A33, 4-(5-amino-6-((1-(1-methylpiperidin-4-yl)-1H-pyrazol-4-yl)oxy)pyrazin-2-yl)-2-(difluoromethyl)-N-(2-(dimethylamino)ethyl)-6-methylbenzamide]",7.17,6.99
"Cc1cc(-c2cnc(N)c(Oc3cnn(C4CCN(C)CC4)c3)n2)cc(C)c1CNS(=O)(=O)C1CCOCC1 [Example A31, N-(4-(5-amino-6-((1-(1-methylpiperidin-4-yl)-1H-pyrazol-4-yl)oxy)pyrazin-2-yl)-2,6-dimethylbenzyl)tetrahydro-2H-pyran-4-sulfonamide]",7.47,7.11
"Cc1cc(-c2cnc(N)c(Oc3cnn(C4CCN(C)CC4)c3)n2)cc(C)c1CNc1ncco1 [Example A67, N-(4-(5-amino-6-((1-(1-methylpiperidin-4-yl)-1H-pyrazol-4-yl)oxy)pyrazin-2-yl)-2,6-dimethylbenzyl)oxazol-2-amine]",7.77,7.12
"Cc1cc(-c2cnc(N)c(Oc3cnn(C4CCN(C)CC4)c3)n2)cc(C)c1C1=CCOCC1 [Example A75, 5-(4-(3,6-dihydro-2H-pyran-4-yl)-3,5-dimethylphenyl)-3-((1-(1-methylpiperidin-4-yl)-1H-pyrazol-4-yl)oxy)pyrazin-2-amine]",7.54,6.89
"Cc1cc(-c2cnc(N)c(Oc3cnn(C4CCN(C)CC4)c3)n2)cc(C)c1CNc1ccn(C)n1 [Example A56, 5-(3,5-dimethyl-4-(((1-methyl-1H-pyrazol-3-yl)amino)methyl)phenyl)-3-((1-(1-methylpiperidin-4-yl)-1H-pyrazol-4-yl)oxy)pyrazin-2-amine]",7.28,7.07
"COc1ccc(S(=O)(=O)NCc2c(C)cc(-c3cnc(N)c(Oc4cnn(C5CCN(C)CC5)c4)n3)cc2C)cc1 [Example A39, N-(4-(5-amino-6-((1-(1-methylpiperidin-4-yl)-1H-pyrazol-4-yl)oxy)pyrazin-2-yl)-2,6-dimethylbenzyl)-4-methoxybenzenesulfonamide]",7.46,6.75
"CNS(=O)(=O)c1cc(C)cc(-c2cnc(N)c(Oc3cnn(C4CCNCC4)c3)n2)c1 [Example A13, 3-(5-amino-6-((1-(piperidin-4-yl)-1H-pyrazol-4-yl)oxy)pyrazin-2-yl)-N,5-dimethylbenzenesulfonamide]",6.86,6.92
"Cc1cc(-c2cnc(N)c(Oc3cnn(C4CCN(C)CC4)c3)n2)cc(C)c1C1COCC(=O)N1 (stereo not shown) [Example A35, 5-(4-(5-amino-6-((1-(1-methylpiperidin-4-yl)-1H-pyrazol-4-yl)oxy)pyrazin-2-yl)-2,6-dimethylphenyl)morpholin-3-one]",7.33,6.91
"Cc1cc(-c2cnc(N)c(Oc3cnn(C4CCN(C)CC4)c3)n2)cc(C)c1CNC1(C)COC1 [Example A60, 5-(3,5-dimethyl-4-(((3-methyloxetan-3-yl)amino)methyl)phenyl)-3-((1-(1-methylpiperidin-4-yl)-1H-pyrazol-4-yl)oxy)pyrazin-2-amine]",7.40,7.04
"C[C@@H]1COCCN1c1cc(-c2cnc(N)c(Oc3cnn(C4CCN(C)CC4)c3)n2)cc(C2(O)COC2)c1 [Example A59, (R)-3-(3-(5-amino-6-((1-(1-methylpiperidin-4-yl)-1H-pyrazol-4-yl)oxy)pyrazin-2-yl)-5-(3-methylmorpholino)phenyl)oxetan-3-ol]",8.09,7.29
"CNS(=O)(=O)c1cc(-c2cnc(N)c(Oc3cnn(C4CCN(C)CC4)c3)n2)cc(N2CCCC2)c1 [Example A23, 3-(5-amino-6-((1-(1-methylpiperidin-4-yl)-1H-pyrazol-4-yl)oxy)pyrazin-2-yl)-N-methyl-5-(pyrrolidin-1-yl)benzenesulfonamide]",8.22,7.46
"CN1CCC(n2cc(Oc3nc(-c4cc(N5CCCC5=O)cc(C5(O)COC5)c4)cnc3N)cn2)CC1 [Example A91, 1-(3-(5-amino-6-((1-(1-methylpiperidin-4-yl)-1H-pyrazol-4-yl)oxy)pyrazin-2-yl)-5-(3-hydroxyoxetan-3-yl)phenyl)pyrrolidin-2-one]",7.96,6.70
"Cc1cc(-c2cnc(N)c(Oc3cnn(C4CCN(C)CC4)c3)n2)cc(C)c1CNC(=O)NCC(F)(F)F [Example A51, 1-(4-(5-amino-6-((1-(1-methylpiperidin-4-yl)-1H-pyrazol-4-yl)oxy)pyrazin-2-yl)-2,6-dimethylbenzyl)-3-(2,2,2-trifluoroethyl)urea]",7.34,7.00
"CNS(=O)(=O)c1cc(OC)cc(-c2cnc(N)c(Oc3cnn(C4CCN(C)CC4)c3)n2)c1 [Example A7, 3-(5-amino-6-((1-(1-methylpiperidin-4-yl)-1H-pyrazol-4-yl)oxy)pyrazin-2-yl)-5-methoxy-N-methylbenzenesulfonamide]",7.70,7.21
"C[C@@H]1COCCN1c1cc(-c2cnc(N)c(Oc3cnn(C4CCN(C)CC4)c3)n2)cc([C@@]2(O)CCOC2)c1 [Example A80A, (S)-3-(3-(5-amino-6-((1-(1-methylpiperidin-4-yl)-1H-pyrazol-4-yl)oxy)pyrazin-2-yl)-5-((R)-3-methylmorpholino)phenyl)tetrahydrofuran-3-ol]",7.54,6.71
"Cc1cc(-c2cnc(N)c(Oc3cnn(C4CCN(C)CC4)c3)n2)cc(C)c1CNS(=O)(=O)C1CCCC1 [Example A40, N-(4-(5-amino-6-((1-(1-methylpiperidin-4-yl)-1H-pyrazol-4-yl)oxy)pyrazin-2-yl)-2,6-dimethylbenzyl)cyclopentanesulfonamide]",7.48,6.90
"C[C@@H]1COCCN1c1cc(-c2cnc(N)c(Oc3cnn(C4CCN(C)CC4)c3)n2)cc(C2(O)CCCOC2)c1 (stereo partly drawn) [Example A89, 3-(3-(5-amino-6-((1-(1-methylpiperidin-4-yl)-1H-pyrazol-4-yl)oxy)pyrazin-2-yl)-5-((R)-3-methylmorpholino)phenyl)tetrahydro-2H-pyran-3-ol]",7.96,7.19
"Cc1cc(-c2cnc(N)c(Oc3cnn(C4CCN(C)CC4)c3)n2)cc(C)c1CNC(=O)NC1CCCC1 [Example A37, 1-(4-(5-amino-6-((1-(1-methylpiperidin-4-yl)-1H-pyrazol-4-yl)oxy)pyrazin-2-yl)-2,6-dimethylbenzyl)-3-cyclopentylurea]",7.77,7.01

# Reference: patent publication US20240317714A1, “3-[(1H-PYRAZOL-R-YL)OXY]PYRAZIN-2-AMINE COMPOUNDS AS HPK1 INHIBITOR AND USE THEREOF” (BeiGene, Ltd., priority 2020, published 2024)
